Data on 1 molecule can be found in patent US20190002555A1, “ANTIGEN-BINDING PROTEINS TO MARINOBUFAGENIN” (REGENERON PHARMACEUTICALS, INC., priority 2015, published 2019).

The test deals with T1, Na+/K+ ATPase (Homo sapiens, UniProt P05023).
T1 construct: An in-vitro cell-based assay was developed to assess the regulation of Na+/K+ ATPase by MBG using HEK293 cells; host or cells: HEK293/hnAChR α3/β4 cells
As to the kind of experiment: Membrane potential assay: MBG inhibition of membrane repolarization. Type of test: cell-based. The source says: An in-vitro cell-based assay was developed to assess the regulation of Na+/K+ ATPase by MBG using HEK293 cells. HEK293 has Na+/K+ ATPase activity and contains the α1 isoform (Kochskämper et al. 1997, Biochim. Biophys. Acta 1325: 197-208). […] HEK293 cells expressing human neuronal nicotinic acetylcholine receptors (nAChR) subunits α3 and β4 (Accession # M37981 and #NM_000750), HEK293/hnAChR α3/β4 (Millipore) were used. The nAchR heterodimer is a ligand-gated ion channel that mediates influx of Na+ upon ligand binding (Corringer et al. 2000, Annu. Rev. Pharmacol. Toxicol. 40: 431-458). […] MBG was added to inhibit the repolarization of the cell through its effects on Na^+/K^+ ATPase. Changes in the membrane potential of the cells were monitored using a fluorescent dye whose intensity increases when the cells are depolarized and decreases as the cells are repolarized.
For the bioassay, cells were detached with Enzyme Free Cell Dissociation Buffer (Millipore) seeded into 96-well assay plates at 50,000 cells/well in Opti-MEM™ assay buffer supplemented with 0.1% FBS, penicillin/streptomycin and L-glutamine (known from this point forward as Opti-MEM™), and then incubated at 37° C. in 5% CO2 overnight. […] The plate was then placed into the FLIPR^Tetra® (Molecular Devices) and kinetic readings were collected at 25° C. […]

Values joined by “and” are separate entries in the source; they are usually repeats but may differ in a detail not shown here. Identical values can stand only once. Like-named read-outs stand apart in the source and are kept apart here.

By IC50 is commonly meant the concentration that gives 50% inhibition. Take `C[C@]12CC[C@H](O)C[C@@]1(O)CC[C@@H]1[C@@H]2CC[C@]2(C)[C@@H](c3ccc(=O)oc3)CC3O[C@@]312` (stereo partly drawn) [MBG, 3β, 5β-dihydroxy-14,15-epoxybufadienolide]: the IC50 (IC50 [M] of MBG (@ 100 nM Epibatidine)) was 6.6e-07 M and 4.5e-07 M; the IC50 (read-out: IC50 of MBG) was 7e-07 M and 4.46e-07 M and 6.62e-07 M.
